Reference: patent publication US8067391B2, “ODCase inhibitors for the treatment of malaria” (University Health Network, priority 2005, dated 2011)
Read-outs that look alike come from different tables or passages of the source.

Legend:
Plasmodium falciparum = experiment: anti-malarial activity against Plasmodium falciparum; format: cell-based; conditions: read-out: IC50 anti-malarial activity
Method: (§1) Assays comparing the antiplasmodial activities of the compounds of the invention were performed using the SYBR-Green method.^xlviii Briefly, the compounds were dissolved in DMSO to achieve a concentration of 10 mg/mL. Fifty microliters of RPMI-A were added to each well in a 96-well plate before 40 μL of RPMI-A and 10 μL of compound solution were added to the first well, the contents of the well were mixed, 50 μL were removed and added to the next well in the series and the process was repeated until the next-to-last well was reached. This produced a plate with a series of two-fold dilutions across it, except for the last well in the series, which contained RPMI-A alone. Fifty microliters of parasite culture (2% hematocrit, 2% parasitemia) were added to each well and the plates were then incubated at 37° C. in 95% N2, 3% CO2, and 2% O2 for 72 hrs.

Plasmodium vivax = experiment: anti-malarial activity against Plasmodium vivax; format: cell-based; conditions: range stated for the group of compounds
ODCase = ODCase inhibition (isothermal titration calorimetry enzymology); format: biochemical
Method: (a) Enzymology. ODCase from M. thermoautotrophicum (Mt) and compound Id were incubated at room temperature in the reaction buffer (50 mM Tris, 20 mM DTT, 40 mM NaCl, pH 7.5). The concentrations of the Id were 1×, 2.5×, 3.5× and 5× of the enzyme concentration, corresponding to 50, 125, 175 and 250 μM, respectively. The remaining enzyme activity in the enzyme-inhibitor reaction mixture was measured after 30 min, 2, 4, 8, 12, 24, 48 and 96 hours after the onset of incubation. Aliquots (1 μL) were removed from the reaction mixture and diluted to 2.5 mL with the assay buffer (50 mM Tris, 1 mM DTT, pH 7.5). […]
The inhibition of ODCase from P. falciparum (Pf) was assayed in a similar manner. […] The remaining activity of ODCase was measured at 37° C. for up to 48 hrs. […]
The Pf ODCase concentration in each of the samples (15, 30, and 45 min incubation times) was 60 nM. […] The remaining enzyme activities in these samples were measured by injecting 3 μL of 2.85 mM OMP. The enzyme activity at t=0 was measured by injecting OMP and 6-iodo-UMP simultaneously into the 60 nM enzyme solution in the ITC sample chamber. […] The control sample with 60 nM enzyme was incubated for 15-45 minutes at 37° C., and the enzyme activity was measured after the addition of 3 μL of 2.85 mM OMP. […]
Half-time of inactivation t1/2 was calculated from: t1/2=0.693/kinact (3)

[1] = system: human primary blood cells (PBLs); experiment: human primary blood cell assay (H-3 incorporation, Con A stimulated); format: cell-based
Method: The following procedure was used to conduct human primary blood cell assays. Added 3 ml of PBS (OCI media facility) to 3 ml of serum depleted blood from normal, adult, human controls. Pipetted 6 ml Ficoll-Paque Plus (Amersham 17-1440-03) into a 15 ml centrifuge tube. Overlaid with PBS diluted blood. Centrifuged at 2500 rpm for 10 minutes at room temperature, no brake.
Removed and discarded upper (PBS) phase. Transferred cells at the PBS/Ficoll interface to a clean 15 ml centrifuge tube. Added 10 mL PBS. Then, centrifuged at 1250 rpm for 10 minutes at room temperature.
Discarded the supernatant and resuspended the cell pellet in Iscove's Modified Dulbecco's Medium (Gibco 12440 prepared by OCI Media facility) supplemented with 5.5×10^-5M 2ME (Fisher 03446-100) and 5% FBS (Hyclone SH-30397-03 Lot # KPG21604). Plated cells at 50,000 cells per well in 96 well flat bottom plates (Costar 3595). Added Concanavalin A (Pharmacia 17-0450-01) to a final concentration of 1.5 micro gm/ml. All conditions were set in triplicate.
Included untreated (Con A alone) controls. Cultured cells for 48 hours or 72 hours at 37° C. with 5% CO2 and 90% relative humidity. Added 0.5 uCi H-3 (Perkin Elmer NET027A) per well in 10 microL for the last 8 hours of the culture period. […]
Dried plates for 1 hour at 37° C. […] Data was collected by reading the radioactivity counts.

[2] = toxicity to human fibroblast (HFF) cell line; format: cell-based; conditions: human fibroblast (HFF) cells
P. burghei [3] = experiment: mouse efficacy study against plasmodia; format: in vivo, mice
Source text: P. chabaudi chabaudi (Pcc) AS infection: They are two different species of mouse malaria that are used commonly in mice efficacy studies: P. chabaudi chabaudi AS and P. burghei. Pcc strain induces larger load of parasites and even some mouse strains die. If P. burghei strain is given to the mouse, they develop fewer parasites but become very sick. Pcc strain provides an opportunity in mice to observe if parasite numbers are reduced in the context of a reasonably healthy animal. Thus, Pcc strain was used in the efficacy model.
Blood-stage PCCAS was maintained in as described (Podoba J E and Stevenson, 1991)[2]. Infections in experimental animals were initiated by intraperitoneal injection of 1×10^6 P. chabaudi chabaudi AS-infected erythrocytes (PCCAS). Course of infection was monitored daily for 18 days by determining parasitemia on thin-blood smears stained with Diff Quik (American Scientific Products, Mississauga, ON). Compounds to be assayed were made up in RPMI 1640 at the concentration required to deliver the target dose in a total volume of 0.5 mL and were then filter sterilized. Compounds were stored at 4° C. prior to use. After infection the presence of parasites in the peripheral circulation was monitored daily until parasites were first observed. The mice were then injected daily for three consecutive days with either RPMI 1640 alone or compound dissolved in RPMI. The health of the animals was assessed daily and the parasitemia determined by examining blood films.
(§2) Efficacy studies in mice were performed using Ii to test the in vivo potential of this compound. Mice were infected with P. burghei, a mouse strain similar to the human malaria parasite P. falciparum. P. burghei strain is approximately 20 times less sensitive to Ii, so the dose in mice had to be adjusted accordingly. Parasitemia was monitored in mice after the drug was given at two different doses: 0.6 mg/mouse (n=3) and 6 mg/mouse (n=3). There was a control group of mice without any treatment with Ii.

P. falciparum 3D7 = experiment: antiplasmodial activity, SYBR-Green method, P. falciparum 3D7 isolate; format: cell-based; conditions: Plasmodium falciparum, in vitro, FIG. 4, read-out: IC50 anti-plasmodial activity
Method: as §1
(§3) CHO cells (ATCC, Manassas, Va.) were grown in RPMI-1640 supplemented with 10% fetal calf serum (Sigma, St. Louis, Mo.), 25 mM HEPES and gentimicin (RPMI-10). Cells were seeded in 96 well plates and grown to 50% confluency in 100 μL of RPMI-10 per well prior to the addition of either DMSO alone, or a test compound dissolved in DMSO to a concentration of 10 mg/mL. […]

P. burghei [4] = experiment: sensitivity of P. burghei strain compared with P. falciparum; conditions: P. burghei strain vs P. falciparum
Method: as §2

[5] = CHO cell toxicity assay (MTT); format: cell-based; conditions: Chinese hamster, CHO cells; CHO cell line
Method: CHO cells (ATCC, Manassas, Va.) were grown in RPMI-1640 supplemented with 10% fetal calf serum (Sigma, St. Louis, Mo.), 25 mM HEPES and gentimicin (RPMI-10). Cells were seeded in 96 well plates and grown to 50% confluency in 100 μL of RPMI-10 per well prior to the addition of either DMSO alone, or a test compound dissolved in DMSO to a concentration of 10 mg/mL. Compound gradients were prepared by adding 90 μL of RPMI-10 mixed with 10 μL of compound solution to the first well in the series, mixing, transferring 100 μL to next well and repeating until the next-to-last well was reached. After 48 hrs, the viability of the cells was determined by discarding the media in the wells and adding 100 μL of 10 mg/mL of 3-[4,5-dimethylthiazol-2-yl]-2,5-diphenyltetrazolium bromide (MTT, Sigma, St. Louis, Mo.) in RPMI-10, incubating the plates for an additional hour, and then removing the media and adding 100 μL of DMSO and reading the absorbance at 650 nm.^xlix The IC50 values of individual compounds were determined applying a non-linear regression analysis of the dose-response curve using the computer program SigmaPlot (Jandel Scientific).

P. falciparum ItG = experiment: antiplasmodial activity, SYBR-Green method, P. falciparum ItG isolate; format: cell-based; conditions: Plasmodium falciparum, in vitro, FIG. 4, read-out: IC50 anti-plasmodial activity
Method: as §1, §3

[6] = toxicity to Vero cell line; format: cell-based; conditions: African green monkey, Vero cells
[7] = range stated for the group of compounds

Compound | IC50 (Plasmodium falciparum; [7]) | IC50 (Plasmodium vivax) | also measured
[N-]=[N+]=Nc1cc(=O)[nH]c(=O)n1[C@@H]1O[C@H](CO)[C@@H](O)[C@H]1O [Id, 6-Azido uridine] | 20 to 2000 µM | 20 to 2000 µM | 
O=c1[nH]c(=O)n([C@@H]2O[C@H](CO)[C@@H](O)[C@H]2O)c(I)c1F [Ip, 5-fluoro-6-iodo uridine] | 20 to 2000 µM | 20 to 2000 µM | 
O=c1cc(I)n([C@@H]2O[C@H](COP(=O)(O)O)[C@@H](O)[C@H]2O)c(=O)[nH]1 [Ij, 6-Iodo uridine-5′-O-monophosphate] | 20 to 2000 µM | 20 to 2000 µM | 
Nc1c(F)c(=O)[nH]c(=O)n1[C@@H]1O[C@H](CO)[C@@H](O)[C@H]1O [In, 5-Fluoro-6-amino uridine] | 20 to 2000 µM | 20 to 2000 µM | 
[N-]=[N+]=Nc1cc(=O)[nH]c(=O)n1[C@@H]1O[C@H](COP(=O)(O)O)[C@@H](O)[C@H]1O [If, 6-Azido uridine-5′-O-monophosphate] | 20 to 2000 µM | 20 to 2000 µM | 
N#Cc1cc(=O)[nH]c(=O)n1[C@@H]1O[C@H](CO)[C@@H](O)[C@H]1O [Ia, 6-Cyanouridine] | 20 to 2000 µM | 20 to 2000 µM | 
[N-]=[N+]=Nc1c(F)c(=O)[nH]c(=O)n1[C@@H]1O[C@H](CO)[C@@H](O)[C@H]1O [Io, 5-fluoro-6-azido uridine] | 20 to 2000 µM | 20 to 2000 µM | 
Nc1cc(=O)[nH]c(=O)n1[C@@H]1O[C@H](COP(=O)(O)O)[C@@H](O)[C@H]1O [Ie, 6-Amino uridine-5′-O-monophosphate] | 20 to 2000 µM | 20 to 2000 µM | 
Nc1cc(=O)[nH]c(=O)n1[C@@H]1O[C@H](CO)[C@@H](O)[C@H]1O [Compound Ic, 6-Amino uridine] | 20 to 2000 µM | 20 to 2000 µM | 
N#Cc1cc(=O)[nH]c(=O)n1[C@@H]1O[C@H](COP(=O)(O)O)[C@@H](O)[C@H]1O [Ib, 6-Cyanouridine-5′-monophosphate] |  | 20 to 2000 µM | IC50 (Plasmodium falciparum): 20 to 2000 µM
COC(=O)c1cc(=O)[nH]c(=O)n1[C@@H]1O[C@H](CO)[C@@H](O)[C@H]1O [Compound It, 6-Methoxycarbonyl uridine] | 20 to 2000 µM | 20 to 2000 µM | 
O=c1cc(I)n([C@@H]2O[C@H](CO)[C@@H](O)[C@H]2O)c(=O)[nH]1 [Ii, 6-Iodo-uridine] |  |  | type of ODCase inhibition (ODCase): covalent inhibitor; toxicity not observed up to [1]: > 200 mM; IC50 [2]: > 300 µM; parasitemia in mice (P. burghei [3]; mice infected with P. burghei, 0.6 and 6 mg/mouse, vs untreated controls, dose-dependent, FIG. 5): decreased parasitemia; survival rate (P. burghei [3]; mice infected with P. burghei, treated vs controls, FIG. 6): longer survival time; survival, multiple dosing, higher doses (P. burghei [3]; mouse efficacy study with multiple dosing, vs no drug, FIG. 7): increased survival; IC50 (P. falciparum 3D7): 6.2 ± 0.7 µM; times less sensitive than P. falciparum (P. burghei [4]): approximately 20 times; IC50 at 48 h [5]: 366 ± 45 µM; IC50 (P. falciparum ItG): 4.4 ± 1.3 µM; CC50 [6]: > 300 µM
